Tested on: Testmikroorganismen
Assay: Preservative challenge test (BP 1980 / USP XXI) of antacid preparations
Assay type: cell-based
Settings: for Ergebnisse von Konservierungstests: Hydrotalcitsuspensionen with the preservative added at various concentrations (Tabelle 2); for Vermehrung von Bakterien und Hefen: Hydrotalcitsuspensionen, also at high preservative concentrations
Source text: Der Nachweis der einwandfreien Haltbarmachung von Antacida-Zubereitungen erfolgte mit Hilfe geeigneter Konservierungsbelastungstests wie sie z.B. in der Britischen Pharmakopöe von 198O (British Pharmacopoeia 198O, Addendum 1982, Revised Apendix XVIC: Efficacy of Antimicrobial Preservatives in Pharmaceutical Products) oder der Pharmakopöe der Vereinigten Staaten (The United States Pharmacopeia XXI (1985) Antimicrobial Preservatives Effectiveness,S. 1151-1156) beschrieben werden.
Neben einer Richtlinie der WHO für nichtsterile Produkte, die eine Begrenzung des Keimgehalts in nichtsterilen oralen Arzneimitteln auf 1OOO/ml fordert, gelten unterschiedlich hohe Anforderungen hinsichtlich der Abtötungsrate für bestimmte Testmikroorganismen, je nach Pharmakopöe. Die britische Pharmakopöe verlangt z.B. eine Verminderung der Bakterienkonzentration um 2 Zehnerpotenzen innerhalb von 7 Tagen sowie keine Vermehrung von Hefen und Schimmelpilzen (s. Tab. 1).

SMILES | Ergebnisse von Konservierungstests | Vermehrung von Bakterien und Hefen
O=C(O)c1ccccc1 [Benzoesäure] | unwirksam | Vermehrung von Bakterien und Hefen
Cc1ccc(C(C)C)c(O)c1 [Thymol, 5-Methyl-2-(1-methylethyl)phenol] | gut konserviert | –
C/C=C/C=C/C(=O)O [Sorbinsäure] | unwirksam | Vermehrung von Bakterien und Hefen
O=CC=Cc1ccccc1 [Zimtaldehyd, 3-Phenyl-2-propenal] | gut konserviert | –
C=CCc1ccc(O)c(OC)c1 [Eugenol, 2-Methoxy-4-(2-propenyl)phenol] | gut konserviert | –
N=C(NCCCCCCNC(=N)NC(=N)Nc1ccc(Cl)cc1)NC(=N)Nc1ccc(Cl)cc1 [Chlorhexidin] | unwirksam | –

Reference: patent EP0241804A2, “Preserved antacid preparations” (BAYER AG, priority 1986, dated 1987)
